# In patent US20240287052A1, “NOVEL OXAZOLE DERIVATIVE AND PHARMACEUTICAL COMPOSITION FOR PREVENTING OR TREATING ALLERGIC DISEASES COMPRISING THE SAME” (AZCURIS CO., LTD., priority 2021, published 2024):
# Where two headings read alike, the source gives them in different places.
# Molecular target: T1, IL33 and ST2 binding (Homo sapiens, UniProt O95760)
# T1 sequence (O95760 112-270 limits assumed): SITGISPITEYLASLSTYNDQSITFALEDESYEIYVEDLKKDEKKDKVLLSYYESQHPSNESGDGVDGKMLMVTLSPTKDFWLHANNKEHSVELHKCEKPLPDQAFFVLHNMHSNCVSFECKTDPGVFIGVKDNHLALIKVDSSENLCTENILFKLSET
# 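Further: plate ELISA with coated Flag-tagged human IL-33 and His-tagged human ST2, bound ST2 detected by anti-His HRP and TMB absorbance at 450 nm, 2 h compound incubation.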
# Description: 100 nM of Flag tagged IL-33 human recombinant protein was prepared in 1× coating buffer (Biolegend) and placed in a 96 well microplate (Coming) using a Multichannel pipette (Gilson) and coated for at least 12 hours at 4° C.
# After washing three times with PBST (1×PBS (Welgene), 1% Tween 20 (sigma)), it was reacted with 1% BSA (Bovogen) blocking buffer for 1 hour at room temperature.
# Samples containing 200 nM of His-tagged ST2 human recombinant protein and 60 μM or 200 μM Example synthetic compounds were prepared, added in equal volumes, and reacted for at least 2 hours at room temperature.
# After washing three times with PBST (1×PBS (Welgene), 1% Tween 20 (sigma)), anti-His HRP (BioLegend) antibody was diluted 5000:1 and reacted for at least 1 hour at room temperature.
# After washing three times with PBST (1×PBS (Welgene), 1% Tween 20 (sigma)), TMB substrate solution (Thermo) was added and reacted for more than 5 minutes. The reaction was stopped by adding 1 N HCl (Samchun) and the absorbance value was obtained at 450 nm after orbital shaking for 5 s with a Microplate reader (Tecan, Spark®).
# The results derived from the program linked to the microplate reader were analyzed using an Excel program. IL33-ST2 binding rate (binding %) was calculated by averaging the three values obtained in triplicate, subtracting the positive control value, and converting the negative control value to 100%. The inhibition % value of each compound was obtained by subtracting the IL33-ST2 binding % from 100%, and the error range of triplicate was also obtained and reflected in the inhibition graph of the compound.
Structure (SMILES),inhibition (30 µM) [%],inhibition (100 µM) [%]
"CC(=O)Nc1ccc(NC(=O)c2nc(-c3ccc(C(F)(F)F)cc3)oc2-c2ccccc2[N+](=O)[O-])cc1 [Compound 175, N-(4-Acetamidophenyl)-5-(2-nitrophenyl)-2-(4-(trifluoromethyl)phenyl)oxazole-4-carboxamide]",27,53
"O=C(c1nc(-c2ccc(C(F)(F)F)cc2)oc1-c1ccccc1[N+](=O)[O-])N1CCC(c2ccccc2)CC1 [Compound 145, (5-(2-Nitrophenyl)-2-(4-(trifluoromethyl)phenyl)oxazol-4-yl)(4-phenylpiperidin-1-yl)methanone]",3,11
"CN1CCN(CCNC(=O)c2nc(-c3ccc(OC(F)(F)F)cc3)oc2-c2ccccc2)CC1 [Compound 204, N-(2-(4-Methylpiperazin-1-yl)ethyl)-5-phenyl-2-(4-(trifluoromethoxy)phenyl)oxazole-4-carboxamide]",1,36
"CN1CCN(CCNC(=O)c2nc(-c3ccc([N+](=O)[O-])cc3)oc2-c2ccccc2)CC1 [Compound 276, N-(2-(4-Methylpiperazin-1-yl)ethyl)-2-(4-nitrophenyl)-5-phenyloxazole-4-carboxamide]",2,-23
"O=C(c1nc(-c2ccc(C(F)(F)F)cc2)oc1-c1ccccc1[N+](=O)[O-])N1CCCC1 [Compound 138, (5-(2-Nitrophenyl)-2-(4-(trifluoromethyl)phenyl)oxazol-4-yl)(pyrrolidin-1-yl)methanone]",6,11
"CN(C)CCNC(=O)c1nc(-c2ccc(N(C)C)cc2)oc1-c1ccccc1[N+](=O)[O-] [Compound 263, N-(2-(Dimethylamino)ethyl)-2-(4-(dimethylamino)phenyl)-5-(2-nitrophenyl)oxazole-4-carboxamide]",-35,-10
"CN(C)CCNC(=O)c1nc(-c2ccccc2C(F)(F)F)oc1-c1ccccc1 [Compound 117, N-(2-(Dimethylamino)ethyl)-5-phenyl-2-(2-(trifluoromethyl)phenyl)oxazole-4-carboxamide]",4,10
"CCOC(=O)c1nc(-c2ccc(C(F)(F)F)cc2)oc1-c1ccc(NC(C)=O)cc1 [Compound 107, Ethyl 5-(4-acetamidophenyl)-2-(4-(trifluoromethyl)phenyl)oxazole-4-carboxylate]",-15,-9

# Results, then the compound that gave them:
inhibition (30 µM) [%],inhibition (100 µM) [%],Structure (SMILES)
-11,-19,"COc1cccc(-c2nc(C(=O)NCCN(C)C)c(-c3ccccc3[N+](=O)[O-])o2)c1 [Compound 210, N-(2-(Dimethylamino)ethyl)-2-(3-methoxyphenyl)-5-(2-nitrophenyl)oxazole-4-carboxamide]"
20,54,"CCOC(=O)c1nc(-c2ccc3ccccc3c2)oc1-c1ccccc1[N+](=O)[O-] [Compound 84, Ethyl 2-(naphthalen-2-yl)-5-(2-nitrophenyl)oxazole-4-carboxylate]"
27,68,"CCOC(=O)c1nc(-c2cccc(OC)c2)oc1-c1ccccc1 [Compound 60, Ethyl 2-(3-methoxyphenyl)-5-phenyloxazole-4-carboxylate]"
19,33,"CCOC(=O)c1nc(-c2cccc(C(F)(F)F)c2)oc1-c1ccccc1 [Compound 29, Ethyl 5-phenyl-2-(3-(trifluoromethyl)phenyl)oxazole-4-carboxylate]"
55,105,"CCOC(=O)c1nc(-c2ccc(F)cc2)oc1-c1ccccc1[N+](=O)[O-] [Compound 68, Ethyl 2-(4-fluorophenyl)-5-(2-nitrophenyl)oxazole-4-carboxylate]"
40,93,"CCOC(=O)c1nc(-c2cccc(OC(F)(F)F)c2)oc1-c1ccccc1 [Compound 56, Ethyl 5-phenyl-2-(3-(trifluoromethoxy)phenyl)oxazole-4-carboxylate]"
